In patent publication US12653814B2, “Benzimidazolone-based cinnamamide derivative as TRPV1 antagonist and pharmaceutical composition for treatment or prevention of pain containing same as active ingredient” (JMACKEM CO., LTD, priority 2020, dated 2026):

Assays:
human TRPV1 (hTRPV1) [1] = molecular target: T1, human TRPV1 (hTRPV1) (Homo sapiens, UniProt Q8NER1); experiment: Ca2+ influx assay, antagonism against capsaicin in hTRPV1-HEK recombinant cells; type: cell-based; conditions: capsaicin 10 nM as activator, Fluo4-NW fluorescence, read-out: hTRPV1 IC50 [cap]
T1 construct: host or cells: HEK (PrecisION hTRPV1-HEK recombinant cell line)
T1 sequence (Q8NER1 whole entry): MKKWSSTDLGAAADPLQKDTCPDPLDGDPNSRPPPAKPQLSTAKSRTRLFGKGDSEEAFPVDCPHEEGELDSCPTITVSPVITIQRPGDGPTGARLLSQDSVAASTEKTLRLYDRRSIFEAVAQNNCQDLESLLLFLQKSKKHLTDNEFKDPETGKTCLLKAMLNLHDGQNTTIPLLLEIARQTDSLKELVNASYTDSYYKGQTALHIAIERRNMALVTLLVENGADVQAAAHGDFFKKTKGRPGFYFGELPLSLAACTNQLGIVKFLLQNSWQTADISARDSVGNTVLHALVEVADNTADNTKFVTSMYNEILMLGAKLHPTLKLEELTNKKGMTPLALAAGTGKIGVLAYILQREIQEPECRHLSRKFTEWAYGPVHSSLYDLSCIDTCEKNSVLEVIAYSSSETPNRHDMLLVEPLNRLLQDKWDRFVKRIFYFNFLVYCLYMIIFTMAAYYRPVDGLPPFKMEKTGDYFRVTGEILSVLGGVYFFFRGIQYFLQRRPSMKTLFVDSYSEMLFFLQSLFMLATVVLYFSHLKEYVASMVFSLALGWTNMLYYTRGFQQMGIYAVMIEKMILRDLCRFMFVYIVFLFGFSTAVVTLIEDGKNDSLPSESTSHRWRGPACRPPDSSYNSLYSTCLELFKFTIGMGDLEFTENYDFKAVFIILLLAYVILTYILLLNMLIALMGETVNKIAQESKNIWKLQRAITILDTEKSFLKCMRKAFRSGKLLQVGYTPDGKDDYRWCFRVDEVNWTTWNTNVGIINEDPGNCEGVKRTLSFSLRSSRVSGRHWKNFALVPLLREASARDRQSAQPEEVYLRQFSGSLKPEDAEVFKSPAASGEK

human TRPV1 (hTRPV1) [2] = molecular target: T1, human TRPV1 (hTRPV1); experiment: Evaluation of human pH inhibitory activity in hTRPV1-HEK recombinant cells; type: cell-based; conditions: inhibition of activation at final pH 6.0, test substance 3 μM
Description: Evaluation of Human pH Inhibitory Activity
PrecisION™ hTRPV1-HEK recombinant cells (CYL3063) were purchased from Millipore and used. After culturing the above cells under the conditions of 37° C. and 5% CO2, the cells were inoculated in a 96-well plate at the density of 5×10^4 cells/well, followed by culture for 16 hours. Then, the medium was removed and 100 uL of a staining solution was put into each well, followed by culture for 30 minutes under the conditions of 37° C. and 5% CO2. After 30 minutes, all of the existing staining solution was removed and replaced with 100 uL of HBSS. Thereafter, the cells were acclimatized to room temperature for 15 minutes, and the test substances (example compounds and comparative example compounds of the present invention) were added to each well, followed by culture at room temperature for 15 minutes. Then, the final pH was adjusted to 6.0 using MES, and fluorescence was measured (ex485/em535). In the pH assay, the efficacy of the drug was evaluated using BCTC as a TRPV1 antagonist.

SMILES	IC50 (human TRPV1 (hTRPV1) [1]) [µM]	hTRPV1 pH (%, 3 μM) (human TRPV1 (hTRPV1) [2]) [%]
CC(C)c1cccc(-n2nc(C(F)(F)F)cc2/C=C/C(=O)Nc2cccc3[nH]c(=O)[nH]c23)c1 [Example 50, (E)-3-(1-(3-isopropylphenyl)-3-(trifluoromethyl)-1H-pyrazol-5-yl)-N-(2-oxo-2,3-dihydro-1H-benzo[d]imidazol-4-yl)acrylamide]	0.0413	34.22
O=C(/C=C/c1sc(C(F)(F)F)nc1-c1cccc(Cl)c1)Nc1cccc2[nH]c(=O)[nH]c12 [Example 54, (E)-3-(4-(3-chlorophenyl)-2-(trifluoromethyl)thiazol-5-yl)-N-(2-oxo-2,3-dihydro-1H-benzo[d]imidazol-4-yl)acrylamide]	0.0557	63.44
O=C(/C=C/c1ccc(C(F)(F)F)cc1OCC1CC1)Nc1cccc2[nH]c(=O)[nH]c12 [Example 43, (E)-3-(2-(cyclopropylmethoxy)-4-(trifluoromethyl)phenyl)-N-(2-oxo-2,3-dihydro-1H-benzo[d]imidazol-4-yl)acrylamide]	0.0197	87.68
O=C(/C=C/c1ccc(C(F)(F)F)nc1-c1cccs1)Nc1cccc2[nH]c(=O)[nH]c12 [Example 35, (E)-N-(2-oxo-2,3-dihydro-1H-benzo[d]imidazol-4-yl)-3-(2-(thiophen-2-yl)-6-(trifluoromethyl)pyridin-3-yl)acrylamide]	0.0118	95.87
CCCCOc1nc(C(F)(F)F)ccc1/C=C/C(=O)Nc1cccc2[nH]c(=O)[nH]c12 [Example 8, (E)-3-(2-butoxy-6-(trifluoromethyl)pyridin-3-yl)-N-(2-oxo-2,3-dihydro-1H-benzo[d]imidazol-4-yl)acrylamide]	0.0273	81.24
O=C(/C=C/c1ccc(C(F)(F)F)nc1OCC(F)(F)F)Nc1cccc2[nH]c(=O)[nH]c12 [Example 14, (E)-N-(2-oxo-2,3-dihydro-1H-benzo[d]imidazol-4-yl)-3-(2-(2,2,2-trifluoroethoxy)-6-(trifluoromethyl)pyridin-3-yl)acrylamide]	0.0345	94.03
O=C(/C=C/c1ccc(C(F)(F)Cl)nc1OCC1CC1)Nc1cccc2[nH]c(=O)[nH]c12 [Example 17, (E)-3-(6-(chlorodifluoromethyl)-2-(cyclopropylmethoxy)pyridin-3-yl)-N-(2-oxo-2,3-dihydro-1H-benzo[d]imidazol-4-yl)acrylamide]	0.0569	83.20
O=C(/C=C/c1ccc(C(F)(F)F)nc1-c1ccco1)Nc1cccc2[nH]c(=O)[nH]c12 [Example 36, (E)-3-(2-(furan-2-yl)-6-(trifluoromethyl)pyridin-3-yl)-N-(2-oxo-2,3-dihydro-1H-benzo[d]imidazol-4-yl)acrylamide]	0.011	100.46
O=C(/C=C/c1ccc(C(F)(F)F)nc1-c1cccc(Cl)c1)Nc1cccc2[nH]c(=O)[nH]c12 [Example 31, (E)-3-(2-(3-chlorophenyl)-6-(trifluoromethyl)pyridin-3-yl)-N-(2-oxo-2,3-dihydro-1H-benzo[d]imidazol-4-yl)acrylamide]	0.026	82.34
CC1CC1COc1nc(C(F)(F)F)ccc1/C=C/C(=O)Nc1cccc2[nH]c(=O)[nH]c12 (stereo not shown) [Example 16, (E)-3-(2-((2-methylcyclopropyl)methoxy)-6-(trifluoromethyl)pyridin-3-yl)-N-(2-oxo-2,3-dihydro-1H-benzo[d]imidazol-4-yl)acrylamide]	0.086	97.34
Cc1cccc(-n2nc(C(F)(F)F)cc2/C=C/C(=O)Nc2cccc3[nH]c(=O)[nH]c23)c1 [Example 48, (E)-N-(2-oxo-2,3-dihydro-1H-benzo[d]imidazol-4-yl)-3-(1-(m-tolyl)-3-(trifluoromethyl)-1H-pyrazol-5-yl)acrylamide]	0.00995	29.43
CC(C)c1cccc(-c2nc(C(F)(F)F)ccc2/C=C/C(=O)Nc2cccc3[nH]c(=O)[nH]c23)c1 [Example 32, (E)-3-(2-(3-isopropylphenyl)-6-(trifluoromethyl)pyridin-3-yl)-N-(2-oxo-2,3-dihydro-1H-benzo[d]imidazol-4-yl)acrylamide]	0.0237	67.88
O=C(Nc1cccc2[nH]c(=O)[nH]c12)C1CC1c1cc(C(F)(F)F)nn1-c1cccc(Cl)c1 (stereo not shown) [Example 63, 2-(1-(3-chlorophenyl)-3-(trifluoromethyl)-1H-pyrazol-5-yl)-N-(2-oxo-2,3-dihydro-1H-benzo[d]imidazol-4-yl)cyclopropane-1-carboxamide]	0.0103	0.53
CC(F)(F)c1ccc(/C=C/C(=O)Nc2cccc3[nH]c(=O)[nH]c23)c(OCC2CC2)n1 [Example 22, (E)-3-(2-(cyclopropylmethoxy)-6-(1,1-difluoroethyl)pyridin-3-yl)-N-(2-oxo-2,3-dihydro-1H-benzo[d]imidazol-4-yl)acrylamide]	0.0312	90.86
CC1(c2nc(-c3cccc(Cl)c3)c(/C=C/C(=O)Nc3cccc4[nH]c(=O)[nH]c34)s2)CC1 [Example 57, (E)-3-(4-(3-chlorophenyl)-2-(1-methylcyclopropyl)thiazol-5-yl)-N-(2-oxo-2,3-dihydro-1H-benzo[d]imidazol-4-yl)acrylamide]	0.0398	61.78
CCCN(CCC)c1nc(C(F)(F)F)ccc1/C=C/C(=O)Nc1cccc2[nH]c(=O)[nH]c12 [Example 7, (E)-3-(2-(dipropylamino)-6-(trifluoromethyl)pyridin-3-yl)-N-(2-oxo-2,3-dihydro-1H-benzo[d]imidazol-4-yl)acrylamide]	0.0233	89.87
CC(C)(C)c1ccc(/C=C/C(=O)Nc2cccc3[nH]c(=O)[nH]c23)c(OCC2CC2)c1 [Example 45, (E)-3-(4-(tert-butyl)-2-(cyclopropylmethoxy)phenyl)-N-(2-oxo-2,3-dihydro-1H-benzo[d]imidazol-4-yl)acrylamide]	0.0793	48.71
O=C(/C=C/c1ccc(C(F)(F)F)nc1OCC1CCCC1)Nc1cccc2[nH]c(=O)[nH]c12 [Example 26, (E)-3-(2-(cyclopentylmethoxy)-6-(trifluoromethyl)pyridin-3-yl)-N-(2-oxo-2,3-dihydro-1H-benzo[d]imidazol-4-yl)acrylamide]	0.0544	95.11
CC1(c2ccc(/C=C/C(=O)Nc3cccc4[nH]c(=O)[nH]c34)c(OCC3CC3)n2)CC1 [Example 20, (E)-3-(2-(cyclopropylmethoxy)-6-(1-methylcyclopropyl)pyridin-3-yl)-N-(2-oxo-2,3-dihydro-1H-benzo[d]imidazol-4-yl)acrylamide]	0.0535	86.79
O=C(/C=C/c1ccc(C(F)(F)F)nc1-c1ccc(F)cc1)Nc1cccc2[nH]c(=O)[nH]c12 [Example 34, (E)-3-(2-(4-fluorophenyl)-6-(trifluoromethyl)pyridin-3-yl)-N-(2-oxo-2,3-dihydro-1H-benzo[d]imidazol-4-yl)acrylamide]	0.0111	37.85
O=C(/C=C/c1cc(C(F)(F)F)nn1-c1cccc(Cl)c1)Nc1cccc2[nH]c(=O)[nH]c12 [Example 47, (E)-3-(1-(3-chlorophenyl)-3-(trifluoromethyl)-1H-pyrazol-5-yl)-N-(2-oxo-2,3-dihydro-1H-benzo[d]imidazol-4-yl)acrylamide]	0.0159	37.26
CC(C)(C)c1cc(/C=C/C(=O)Nc2cccc3[nH]c(=O)[nH]c23)n(-c2cccc(Cl)c2)n1 [Example 53, (E)-3-(3-(tert-butyl)-1-(3-chlorophenyl)-1H-pyrazol-5-yl)-N-(2-oxo-2,3-dihydro-1H-benzo[d]imidazol-4-yl)acrylamide]	0.0798	78.21
CC(C)CSc1nc(C(F)(F)F)ccc1/C=C/C(=O)Nc1cccc2[nH]c(=O)[nH]c12 [Example 27, (E)-3-(2-(isobutylthio)-6-(trifluoromethyl)pyridin-3-yl)-N-(2-oxo-2,3-dihydro-1H-benzo[d]imidazol-4-yl)acrylamide]	0.0409	78.45
O=C(/C=C/c1ccc(C(F)(F)F)nc1-c1ccc(F)c(Cl)c1)Nc1cccc2[nH]c(=O)[nH]c12 [Example 33, (E)-3-(2-(3-chloro-4-fluorophenyl)-6-(trifluoromethyl)pyridin-3-yl)-N-(2-oxo-2,3-dihydro-1H-benzo[d]imidazol-4-yl)acrylamide]	0.0274	69.89
CC(C)COc1cc(C(F)(F)F)ccc1/C=C/C(=O)Nc1cccc2[nH]c(=O)[nH]c12 [Example 42, (E)-3-(2-isobutoxy-4-(trifluoromethyl)phenyl)-N-(2-oxo-2,3-dihydro-1H-benzo[d]imidazol-4-yl)acrylamide]	0.0354	78.89
CCN(CC)c1nc(C(F)(F)F)ccc1/C=C/C(=O)Nc1cccc2[nH]c(=O)[nH]c12 [Example 6, (E)-3-(2-(diethylamino)-6-(trifluoromethyl)pyridin-3-yl)-N-(2-oxo-2,3-dihydro-1H-benzo[d]imidazol-4-yl)acrylamide]	0.0107	76.92
